Reference: PubChem BioAssay AID743396 (Broad Institute, 2014)
Activity calls are given as the source filed them.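 The calls were made as follows: active = fitted curve reaches a 40% rise in fluorescent cells at or below the top valid dose; inactive = opposite-direction effect, or the rest.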

Key:
[1] = tested on: mTEFS fibroblasts autofluorescence, GFP-channel imaging, 3 days; assay: autofluorescent compounds in non-GFP fibroblasts, dose response, artefact control for X-chromosome reactivation project, imaging, mTEFS fibroblasts, cherry-pick (AID 743396);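 as to % fluorescent cells increase: raw share of Hoechst-counted cells scored GFP positive without control normalization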
[2] = as above; settings: mTEFS fibroblasts autofluorescence, GFP-channel imaging, 3 days; at 19.5 µM (top of the series); cells pretreated with 5-aza-dC

Structure (SMILES)	AC40 ([1]; cells pretreated with 5-aza-dC)	% fluorescent cells increase [2]	other results
CC(C)N1CCc2c(sc(NC(=O)c3ccc4ccccc4c3)c2C(N)=O)C1	10.6 µM		
COc1ccccc1-[n+]1c(C)cc(/C=C2\Sc3ccccc3N2C)cc1C	3.52 µM		
COc1ccc(N(C)S(=O)(=O)c2cccc(C(=O)NCC(c3cccs3)N(C)C)c2)cc1 (stereo not given)	13.9 µM		
CN(C)c1ccc(/C=C(/C#N)C(=O)NCc2ccccc2)o1	14.7 µM		
COC1=CC(=O)c2c(ccc3ncnc(N)c23)C1=O	> 19.5 µM (inactive)		
N#Cc1c(-c2ccccc2F)cc(C2CC2)nc1SCC(=O)c1cccs1	9.82 µM		
COc1ccc2nc(C)cc(NCc3ccc(F)cc3)c2c1	4.85 µM		
COc1ccc(C(=O)Nc2c(F)c(F)c(F)c(F)c2F)cc1OC	> 19.5 µM (inactive)		
CCN1/C(=C\c2ccc3ccccc3[n+]2CC)Sc2cc(C)ccc21	0.582 µM		
CC(NC(=O)/C(C#N)=C/c1ccc([N+](=O)[O-])o1)c1ccccc1 (stereo not given)	> 19.5 µM (inactive)		
Cc1cc(C)c2cc3c(N)c(C(=O)Nc4c(C)[nH]c(=O)[nH]c4=O)sc3nc2c1	> 19.5 µM (inactive)		
Cc1oc2ccc(NS(=O)(=O)c3cccc4cccnc34)cc2c1C(=O)OC(C)C	4.77 µM		
CCN1CCc2c(sc(NC(=O)c3ccc(S(=O)(=O)N(CC)c4ccccc4)cc3)c2C(N)=O)C1	6.59 µM		
CC1=CC(=Cc2sc3ccccc3[n+]2C)C=C(C)O1			AC40 [1]: > 19.5 µM (inactive)
CCN1/C(=C/c2ccc3cc(C)ccc3[n+]2CC)Sc2cc(C)ccc21	6.21 µM		
Cc1cccc2cc3c(N)c(C(=O)N4CCCc5ccccc54)sc3nc12	10.2 µM		
CCN1/C(=C/c2ccc3cc(C)cc(C)c3[n+]2CC)Sc2cc(C)ccc21	10.4 µM		
N#C/C(=C/c1ccc(N2CCCCC2)o1)C(=O)NCCc1c[nH]c2ccccc12	5.61 µM		
Cc1cc2oc3ccc(NCCCn4ccnc4)cc3c(=O)c2cc1C	19.2 µM		
Cc1nnc(N2C(=O)c3cccc4c([N+](=O)[O-])ccc(c34)C2=O)s1	> 19.5 µM (inactive)		
CCN(CC)c1ccc2cc(-c3nc(-c4ccc(OC)cc4)cs3)c(=O)oc2c1	0.0781 µM		
CCCCCC[n+]1ccccc1/C=C/c1ccc(N(C)C)cc1	> 19.5 µM (inactive)		
CC(=O)[C@@]1(O)Cc2c(O)c3c(c(O)c2[C@H](O[C@H]2C[C@H](N)[C@H](O)[C@H](C)O2)C1)C(=O)c1ccccc1C3=O	> 2.1 µM (inactive)		

Structure (SMILES)	AC40 ([1]; cells pretreated with 5-aza-dC)	% fluorescent cells increase [2]	other results
COc1ccc(/C=C/C(=O)c2ccc([N+](=O)[O-])o2)cc1OC	> 19.5 µM (inactive)		
N#Cc1ccccc1Cn1cc(/C=N/Nc2ccc([N+](=O)[O-])cn2)c2ccccc21	16.1 µM		
Cc1nonc1NC(=O)CSc1nc2c(C)cccc2cc1C#N	9.02 µM		
CC(C)(C)NC(=S)N/N=C\c1ccc(-c2ccc([N+](=O)[O-])cc2)o1	7.84 µM		
CCC(CO)[n+]1c(C)cc(/C=C2\Sc3ccccc3N2Cc2ccccc2)cc1C (stereo not given)	7.28 µM		
COc1ccc(C(=O)c2sc3nc(C)cc(-c4cccs4)c3c2N)cc1	14.5 µM		
Cc1ccc(C(=O)N/C(=C/c2ccc(-c3ccc([N+](=O)[O-])cc3)o2)C(=O)NCCCN(C)C)cc1	5.7 µM		
Cc1n[nH]c(=S)n1/N=C/c1ccc(-c2ccc(Cl)cc2)o1	> 19.5 µM (inactive)		
CCN(CC)c1ccc2cc(C(=O)c3cccs3)c(=O)oc2c1	11.3 µM		
CCOC(=O)/C(=C/C=C1\Sc2cc(C)c(C)cc2N1CC)C(C)=O	12.5 µM		
COC1C(CO)OC(n2c3c(Cl)cccc3c3c4c(c5c6cccc(Cl)c6[nH]c5c32)C(=O)NC4=O)C(O)C1O (stereo not given)	> 19.5 µM (inactive)		
O=c1oc2cc(O)ccc2cc1-c1nc2c(s1)CCc1ccccc1-2	4.39 µM		
O=[N+]([O-])c1ccc(/C=C/C2=NN(c3ccccc3)C(c3ccco3)C2)cc1 (stereo not given)	3.37 µM		
O=C1N(c2ccccc2)C[C@@H]2C[C@@H](c3cc4ccccc4o3)N3CCC[C@@]123		-0.007% (inactive)	
O=C(CC1CC1)N1CC(=O)N2[C@@H](CO)[C@H](c3ccc(C#Cc4ccc(F)cc4)cc3)[C@@H]2C1		-0.043% (inactive)	
COc1ccc(-c2nnc(NC(=O)c3ccc(F)cc3)o2)cc1		0% (inactive)	
CCCCNc1nc2c(-c3ccccc3)nnn2c2ccccc12		0.006% (inactive)	
CC(=O)c1ccc(C(=O)Nc2sc3c(c2C(N)=O)CCN(Cc2ccccc2)C3)cc1		8.52% (inactive)	
Cc1cccc(NCc2ccc(O)c3ncccc23)c1C		0.074% (inactive)	
CCCn1c(SCC(=O)NCc2ccc(C)cc2)n[nH]c1=O		-0.007% (inactive)	
CCc1ccc(NS(=O)(=O)c2ccc3[nH]cc(C(=O)N4CCc5ccccc54)c(=O)c3c2)cc1		0% (inactive)	
O=C1c2cccc3c([N+](=O)[O-])ccc(c23)C(=O)N1Cc1cccnc1		11.8% (inactive)	
C[C@@H]1CN([C@@H](C)CO)C(=O)c2cc(NS(=O)(=O)c3ccccc3)ccc2O[C@@H](C)CCCCO[C@@H]1CN(C)Cc1ccc2c(c1)OCO2		0% (inactive)	

Structure (SMILES)	AC40 ([1]; cells pretreated with 5-aza-dC)	% fluorescent cells increase [2]	other results
CC(C)OC(=O)CC(=O)CSc1nc(-c2ccc(F)cc2)cc(-c2ccccc2)c1C#N		0.594% (inactive)	
O=c1c(Cl)c(Cl)cnn1Cc1nnc(-c2ccccc2Br)o1		-0.006% (inactive)	
CN1OC[C@@H]2CN(Cc3ccccc3)[C@H](c3cccc(N4CCOCC4)c3)C[C@@H]21		0.013% (inactive)	
Cc1ccc(Cn2ccsc2=NC(=O)CCl)cc1		0% (inactive)	
COc1ccc2c3c(n(C)c2c1)[C@@H](CO)N(C(=O)NC(C)C)CC31CN(C(C)=O)C1		-0.138% (inactive)	
CN(C1CCCCC1)S(=O)(=O)c1ccc(C(=O)N2CCN(c3nc4ccccc4s3)CC2)cc1		-0.007% (inactive)	
COc1ccc(S(=O)(=O)N(C)C[C@H]2Oc3ccc(NS(=O)(=O)c4ccc(F)cc4)cc3CC(=O)N([C@@H](C)CO)C[C@@H]2C)cc1		0% (inactive)	
CCOC(=O)c1sc(-c2ccc(F)cc2)cc1NC(=O)Nc1ccccc1OC		-0.011% (inactive)	
CN(CC(=O)Nc1ccc(Cl)c(Cl)c1)CC(=O)Nc1ccc2c(c1)OCO2		0% (inactive)	
Cn1cc(C(=O)N/N=C/C(Br)=C/c2ccccc2)ccc1=O		0% (inactive)	
COC(C(=O)NCc1ccc(C)cc1)c1ccccc1 (stereo not given)		0% (inactive)	
COC(=O)CCN1CCC(c2cc(-c3cccc(C(F)(F)F)c3)n[nH]2)CC1		0% (inactive)	
Cc1c(CN2CCCC(C(=O)c3cccc(OC(C)C)c3)C2)c(=O)n(-c2ccccc2)n1C (stereo not given)		0.037% (inactive)	
COc1ccc(-c2nn(-c3ccccc3)cc2C(=O)NC(=S)Nc2cc(Cl)ccc2Cl)cc1		2.13% (inactive)	
O=C(CCN1CCCCC1)NCC[C@@H]1CC[C@H](NC(=O)C2CCCCC2)[C@H](CO)O1		0.045% (inactive)	
O=C(NCCO)/C(=C/c1ccco1)NC(=O)c1ccco1		0.007% (inactive)	
CC1=C(Cl)C2=NS(=O)(=O)CCN2C=C1Cl		1.51% (inactive)	
Cc1ccccc1OCC(O)CNC1CCC(NCC(O)COc2ccccc2C)CC1 (stereo not given)		0% (inactive)	
CC1C=NC(S(=O)(=O)N2CC[C@@H]3[C@@H](CO)N(C)c4ccc(-c5ccccc5)cc4[C@@H]32)=N1 (stereo not given in full)		0% (inactive)	
CCNC(=O)C[C@@H]1CC[C@H]2[C@@H](COC[C@@H](O)CN2C(=O)C2CCCC2)O1		0.746% (inactive)	
CCOCCCNC(=O)/C(C#N)=C/c1ccc([N+](=O)[O-])o1		9.9% (inactive)	
O=[N+]([O-])c1ccc(S(=O)(=O)c2ccccc2)nc1		-0.004% (inactive)	
CCn1c(Cl)c(C=O)s/c1=N\S(=O)(=O)c1ccccc1		0% (inactive)	

Structure (SMILES)	AC40 ([1]; cells pretreated with 5-aza-dC)	% fluorescent cells increase [2]	other results
COc1cc(/C=C(\C#N)c2nc3ccccc3o2)ccc1O		2.54% (inactive)	
Cc1cccc(NC(=O)Cn2cnc3c(oc4nc5c(cc43)COC(C)(C)C5)c2=O)c1		2.35% (inactive)	
CC(=O)N[C@@H](CC(=O)O)C(=O)O		0.642% (inactive)	
COc1ccc(-c2noc(-c3cccs3)n2)cc1OC		0.073% (inactive)	
COc1ccc2nc(SCC(=O)Nc3ccccc3OC)[nH]c2c1		0.385% (inactive)	
CO[C@@H]1CN(C)C(=O)c2cc(NS(C)(=O)=O)ccc2OC[C@H](C)N(C(=O)C2CCCC2)C[C@H]1C		0.308% (inactive)	
O=C(O)c1ccc(COc2ccccc2C=C2C(=O)c3ccccc3C2=O)cc1		-0.004% (inactive)	
Cc1ccc(Cl)cc1NC(=O)CCC(=O)O		-0.002% (inactive)	
Cc1ccc(NC(=O)COc2ccc(-c3nnco3)cc2)cc1S(=O)(=O)N1CCOCC1		0.01% (inactive)	
COc1ccccc1C(=O)Nc1nnc(S(=O)(=O)N2CCCCCC2)s1		0.055% (inactive)	
CC(C)c1cc(C(=O)N/N=C/c2cccnc2)cs1		-0.004% (inactive)	
Nc1nc(C2CCOCC2)cs1		0.017% (inactive)	
COc1ccccc1N1CCN(C(=O)CN2C(=O)c3cccc4cccc(c34)C2=O)CC1		0.023% (inactive)	
NC(=S)Nc1ccc(Cl)cc1Cl		0.009% (inactive)	
CCN(CC)c1ccc(/C=C/C(=O)C2C(=O)C=C(C)OC2=O)cc1 (stereo not given)		1.2% (inactive)	
Cc1cc(=O)[nH]c(N/N=C/c2cc(C)n(-c3ccccc3)c2C)n1		0% (inactive)	
CNc1ncnc(Sc2ccc(Cl)cc2)c1[N+](=O)[O-]		0% (inactive)	
COc1ccc2c3c([nH]c2c1)[C@H](CO)N(C(=O)Nc1ccc(F)cc1)CC31CN(CC2CC2)C1		0.116% (inactive)	
CC(C)CC#Cc1ccc([C@@H]2[C@@H](CO)N3C(=O)CN(C(=O)c4cccc(F)c4)C[C@H]23)cc1		-0.108% (inactive)	
S=C(SSC(=S)N1CCOCC1)N1CCOCC1		0% (inactive)	
CN1c2ccc(-c3ccc(C#N)cc3)cc2[C@@H]2[C@@H](CCN2C(=O)NC2CCCCC2)[C@H]1CO		0.092% (inactive)	
